Data taken from US7423020B2, “Treatment of mood disorders by administration of SMR1” (Institut Pasteur, priority 2001, dated 2008).
“And” between values parts separate entries of the source, which are not always exact repeats. Identical values can stand only once. “Also recorded” adds a separate entry of the source. Where a SMILES comes first, the peptide text is derived from it.

Key:
adult male rats = settings: PCT patent application WO 01/00 221; cited from earlier work
NEP [1] = target: T1, NEP (Rattus norvegicus, UniProt P07861); test: 3H-Substance P hydrolysis by rat spinal cord slices; type: biochemical; settings: 25° C., over 30 min incubation, read-out: inhibition of Substance P degradation
T1 construct: incubations of membrane and fresh tissue slice preparations from nervous tissues; from tissue; host or cells: rat spinal cord (dorsal zone), fresh slices or 100 000 x g membrane fraction
T1 sequence (P07861 1-750): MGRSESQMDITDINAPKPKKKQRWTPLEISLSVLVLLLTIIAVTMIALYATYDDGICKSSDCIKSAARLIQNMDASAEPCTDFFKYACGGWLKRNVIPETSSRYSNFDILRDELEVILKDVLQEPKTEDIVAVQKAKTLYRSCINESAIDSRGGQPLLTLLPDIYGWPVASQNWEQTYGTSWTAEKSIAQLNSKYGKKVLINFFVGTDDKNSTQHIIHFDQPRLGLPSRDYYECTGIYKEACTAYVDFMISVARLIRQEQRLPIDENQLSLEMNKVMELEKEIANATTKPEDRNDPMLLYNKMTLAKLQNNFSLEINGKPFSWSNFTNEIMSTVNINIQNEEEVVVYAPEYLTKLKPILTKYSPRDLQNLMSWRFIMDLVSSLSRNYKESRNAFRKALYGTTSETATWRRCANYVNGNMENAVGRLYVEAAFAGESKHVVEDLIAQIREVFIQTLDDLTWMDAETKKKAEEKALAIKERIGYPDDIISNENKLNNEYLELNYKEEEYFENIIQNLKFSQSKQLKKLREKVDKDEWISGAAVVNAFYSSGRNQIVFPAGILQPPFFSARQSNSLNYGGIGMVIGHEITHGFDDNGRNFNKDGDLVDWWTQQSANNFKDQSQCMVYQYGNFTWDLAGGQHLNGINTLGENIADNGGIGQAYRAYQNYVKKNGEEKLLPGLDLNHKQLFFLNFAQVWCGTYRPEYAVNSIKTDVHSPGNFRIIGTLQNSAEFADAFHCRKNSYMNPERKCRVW
Procedure: (§1) For the experiments of analysis of the NEP peptidase activity, an ex vivo model using incubations of membrane and fresh tissue slice preparations from nervous tissues that are known to be appropriate for exploring NEP peptidase activity: i.e. the dorsal zone of rat spinal cord, was first developed. […] (NEN, 12.5-25 nM) were used.
(§2) The objective was to measure the NEP-specific endoproteolysis of these substrates.
The C-18 Sep-Pak cartridges (Waters) were used to analyze the hydrolysis of the radiolabeled peptides: they separate compounds according to their differences in polarity. This solid-phase extraction procedure allows isolating the substrate from its metabolites, since the hydrophobic character of the peptide metabolites is reduced or even lost compared to the intact peptide substrate.
The radioactivity of eluted and isolated compounds is determined by liquid scintillation spectrometry.

[2] = Tissue uptake of SMR1-Pentapeptide in vivo; set-up: species or system rat
NEP [3] = target: T1, NEP; test: 3H-Substance P hydrolysis by rat spinal cord membrane preparations; type: biochemical
Procedure: The organs dissected out and washed in ice-cold KRBG are homogenized at 4° C. in 10 volumes (vol./wt.) of 50 mM Tris/HCl buffered at pH 7.2, using a Teflon-glass homogenizer (3×5 sec.). A first centrifugation of 5 min. at 1000×g and 4° C. makes it possible to remove the tissular debris and the nuclei in the pellet. A second centrifugation of the supernatant at 100 000×g and 5° C. concentrates the membrane fraction into the pellet, which will be superficially washed three times with cold Tris/HCl buffer and resuspended in fresh buffer using a Kontes homogenizer, aliquoted and stored at -80° C. while waiting to be used as enzyme source, at least until three months. For the experiments of analysis of the NEP peptidase activity, an ex vivo model using incubations of membrane and fresh tissue slice preparations from nervous tissues that are known to be appropriate for exploring NEP peptidase activity: i.e. the dorsal zone of rat spinal cord, was first developed. The metabolism rate of the NEP-sensitive peptides was measured using the both NEP substrates involved in the signaling of the nociceptive response: the neuropeptides Met-enkephalin and Substance P. […] (NEN, 12.5-25 nM) were used. The objective was to measure the NEP-specific endoproteolysis of these substrates. […] The radioactivity of eluted and isolated compounds is determined by liquid scintillation spectrometry.

male Wistar/AF EOPS rats = test: Behavioral despair test (forced swimming); type: in vivo, rat; set-up: change of period of immobility, retest compared with test: dose or concentration left out as unconfirmed; settings: for Immobility period, Retest / Immobility period, Test: first 5 minutes, n = 10; for Immobility period, Test: test session before any treatment
NEP [4] = target: T1, NEP; test: Met-enkephalin degradation by rat spinal cord slices, RIA assay; type: biochemical; settings: 10 μM; fresh spinal cord slices; 20 min at 25° C.; 10 μM Met-enkephalin
Procedure: as §1, §2

For N=C(N)NCCC[C@H](NC(=O)[C@@H]1CCCN1C(=O)[C@H](CC(N)=O)NC(=O)[C@H](Cc1c[nH]cn1)NC(=O)[C@@H](N)CCC(N)=O)C(=O)O [SMR1-QHNPR, QHNPR] (H-QHNPR-OH; N-terminus and C-terminus assumed), the “effect on sexual behavior and aggressive impulse behavior” value (adult male rats) is given as “dose-dependent improvement on the sexual behavior of adult male rats with a loss of the aggressive impulse behavior”, the inhibition at 10 µM (NEP [1]) is given as 75% and the “stability of tissue uptake” value [2] is given as “pharmacokinetically and biochemically stable in vivo”. For the same compound, the IC50 (NEP [3]; 3H-Substance P 12.5 nM, 10 min at 25° C., read-out: IC50 (concentration reducing by half the degradation of 3H-substance P) (converted)) was ~100 nM and 100 nM, the “protection of Substance P / NEP inhibitory potency compared with reference inhibitors” value (NEP [3]; FIG. 3-B) was “equivalent to that obtained with Phosphoramidon; also recorded: equivalent to that of two well-known NEP-specific inhibitors, Thiorphan and Phosphoramidon” and the “Immobility period, Retest” value (male Wistar/AF EOPS rats; 50 μg/kg i.v., 1440, 300, 5 min before the retest) was 141.20 ± 21.28. For the same compound, the “Immobility period, Retest” value (male Wistar/AF EOPS rats; 100 μg/kg i.v., 1440, 300, 5 min before the retest) was 121.50 ± 17.47, the “Immobility period, Test” value (male Wistar/AF EOPS rats; FG-50 group, 50 μg/kg i.v.) was 119.00 ± 13.79 and the “Immobility period, Test” value (male Wistar/AF EOPS rats; FG-100 group, 100 μg/kg i.v.) was 138.30 ± 11.03. For the same compound, the “change of period of immobility, retest compared with test” value (male Wistar/AF EOPS rats; dose of 100) was “reduce it” and the “protection of Met-enkephalin from degradation (RIA)” value (NEP [4]) was 96%.
